From patent US11447481B2, “Microbiocidal oxadiazole derivatives” (SYNGENTA PARTICIPATIONS AG, priority 2017, dated 2022)

Columns and labels:
Phakopsora pachyrhizi = test: Fungicidal activity against Phakopsora pachyrhizi / soybean / leaf disc preventative (Asian soybean rust); assay type: in vivo; conditions: foliar, soybean leaf disks, compared to untreated control
Description: (§1) Leaf disks or leaf segments of various plant species are cut from plants grown in a greenhouse. The cut leaf disks or segments are placed in multiwell plates (24-well format) onto water agar. The leaf disks are sprayed with a test solution before (preventative) or after (curative) inoculation. Compounds to be tested are prepared as DMSO solutions (max. 10 mg/ml) which are diluted to the appropriate concentration with 0.025% Tween20 just before spraying. The inoculated leaf disks or segments are incubated under defined conditions (temperature, relative humidity, light, etc.) according to the respective test system. A single evaluation of disease level is carried out 3 to 14 days after inoculation, depending on the pathosystem. Percent disease control relative to the untreated check leaf disks or segments is then calculated.
Soybean leaf disks are placed on water agar in multiwell plates (24-well format) and sprayed with the formulated test compound diluted in water. One day after application leaf discs are inoculated by spraying a spore suspension on the lower leaf surface. After an incubation period in a climate cabinet of 24-36 hours in darkness at 20° C. and 75% rh leaf disc are kept at 20° C. with 12 h light/day and 75% rh. The activity of a compound is assessed as percent disease control compared to untreated when an appropriate level of disease damage appears in untreated check leaf disks (12-14 days after application).

[1] = system: Puccinia recondita f. sp. tritici; test: Fungicidal activity against Puccinia recondita f. sp. tritici / wheat / leaf disc preventative (brown rust); assay type: in vivo; conditions: foliar, wheat leaf segments, preventative (inoculated 1 day after application), compared to untreated control
Description: as §1
(§2) Wheat leaf segments cv. Kanzler are placed on agar in multiwell plates (24-well format) and sprayed with the formulated test compound diluted in water. The leaf disks are inoculated with a spore suspension of the fungus 1 day after application. The inoculated leaf segments are incubated at 19° C. and 75% rh under a light regime of 12 h light/12 h darkness in a climate cabinet and the activity of a compound is assessed as percent disease control compared to untreated when an appropriate level of disease damage appears in untreated check leaf segments (7-9 days after application).

[2] = system: Glomerella lagenarium (Colletotrichum lagenarium); test: Fungicidal activity against Glomerella lagenarium (Colletotrichum lagenarium) liquid culture / cucumber / preventative (anthracnose); assay type: cell-based; conditions: Colletotrichum orbiculare, liquid culture (PDB), growth inhibition measured photometrically 3-4 days after application, compared to untreated control
Description: Mycelia fragments or conidia suspensions of a fungus prepared either freshly from liquid cultures of the fungus or from cryogenic storage, are directly mixed into nutrient broth. DMSO solutions of the test compound (max. 10 mg/ml) are diluted with 0.025% Tween20 by a factor of 50 and 10 µl of this solution is pipetted into a microtiter plate (96-well format). The nutrient broth containing the fungal spores/mycelia fragments is then added to give an end concentration of the tested compound. The test plates are incubated in the dark at 24° C. and 96% relative humidity. The inhibition of fungal growth is determined photometrically after 2 to 7 days, depending on the pathosystem, and percent antifungal activity relative to the untreated check is calculated.
Conidia of the fungus from cryogenic storage are directly mixed into nutrient broth (PDB potato dextrose broth). After placing a (DMSO) solution of test compound into a microtiter plate (96-well format), the nutrient broth containing the fungal spores is added. The test plates are incubated at 24° C. and the inhibition of growth is measured photometrically 3-4 days after application.

[3] = system: Puccinia recondita f. sp. tritici; test: Fungicidal activity against Puccinia recondita f. sp. tritici / wheat / leaf disc curative (brown rust); assay type: in vivo; conditions: foliar, 24 h, wheat leaf segments, curative (applied 1 day after inoculation), compared to untreated control
Description: as §1
as §2, with “format).” for “format) and sprayed with the formulated test compound diluted in water.”, “segments” for “disks”, “fungus. Plates are stored in darkness at 19° C. and 75% rh. The formulated test compound diluted in water is applied” for “fungus”, “inoculation.” for “application.”, “The” for “The inoculated”, “(6-8” for “(7-9”

CC1=CC(C)C(=O)N1Cc1ccc(-c2noc(C(F)(F)F)n2)cc1 (stereo not drawn) [Compound B-7, 3,5-dimethyl-1-[[4-[5-(trifluoromethyl)-1,2,4-oxadiazol-3-yl]phenyl]methyl]-3H-pyrrol-2-one]
≥ 80%: pest or weed control at 200 ppm (Phakopsora pachyrhizi) | pest or weed control at 200 ppm [1] | inhibition of growth at 20 ppm [2]

O=c1ccn(-c2ccc(Cl)cc2)n1Cc1ccc(-c2noc(C(F)(F)F)n2)cc1 [Compound A-4, 1-(4-chlorophenyl)-2-[[4-[5-(trifluoromethyl)-1,2,4-oxadiazol-3-yl]phenyl]methyl]pyrazol-3-one]
≥ 80%: pest or weed control at 200 ppm (Phakopsora pachyrhizi) | pest or weed control at 200 ppm [1]

COc1c(-c2c(C)cc(C)cc2C)c(=O)n(Cc2ccc(-c3noc(C(F)(F)F)n3)cc2)n1C [Compound A-3, 5-methoxy-1-methyl-2-[[4-[5-(trifluoromethyl)-1,2,4-oxadiazol-3-yl]phenyl]methyl]-4-(2,4,6-trimethylphenyl)pyrazol-3-one]
≥ 80%: pest or weed control at 200 ppm (Phakopsora pachyrhizi) | inhibition of growth at 20 ppm [2]

Cc1cccc(=O)n1Cc1cc(F)c(-c2noc(C(F)(F)F)n2)c(F)c1 [Compound C-17, 1-[[3,5-difluoro-4-[5-(trifluoromethyl)-1,2,4-oxadiazol-3-yl]phenyl]methyl]-6-methyl-pyridin-2-one]
≥ 80%: pest or weed control at 200 ppm [3] | pest or weed control at 200 ppm [1] | inhibition of growth at 20 ppm [2]

CC(c1ccc(-c2noc(C(F)(F)F)n2)cc1)n1nnn(C)c1=O (stereo not drawn) [Compound B-1, 1-methyl-4-[1-[4-[5-(trifluoromethyl)-1,2,4-oxadiazol-3-yl]phenyl]ethyl]tetrazol-5-one]
≥ 80%: pest or weed control at 200 ppm [3] | pest or weed control at 200 ppm (Phakopsora pachyrhizi) | pest or weed control at 200 ppm [1] | inhibition of growth at 20 ppm [2]

Cc1cccc(=O)n1Cc1cc(F)c(-c2noc(C(F)(F)F)n2)cc1F [Compound C-15, 1-[[2,5-difiuoro-4-[5-(trifluoromethyl)-1,2,4-oxadiazol-3-yl]phenyl]methyl]-6-methyl-pyridin-2-one]
≥ 80%: pest or weed control at 200 ppm [3] | pest or weed control at 200 ppm (Phakopsora pachyrhizi) | pest or weed control at 200 ppm [1] | inhibition of growth at 20 ppm [2]

Cc1cccc(=O)n1C(C)c1ccc(-c2noc(C(F)(F)F)n2)cc1 (stereo not drawn) [Compound C-16, 6-methyl-1-[1-[4-[5-(trifluoromethyl)-1,2,4-oxadiazol-3-yl]phenyl]ethyl]pyridin-2-one]
≥ 80%: pest or weed control at 200 ppm [3] | pest or weed control at 200 ppm [1] | inhibition of growth at 20 ppm [2]

O=S1(=O)C=CCN1Cc1ccc(-c2noc(C(F)(F)F)n2)cc1 [Compound A-1, 2-[[4-[5-(trifluoromethyl)-1,2,4-oxadiazol-3-yl]phenyl]methyl]-3H-isothiazole 1,1-dioxide]
≥ 80%: pest or weed control at 200 ppm [3] | pest or weed control at 200 ppm (Phakopsora pachyrhizi) | pest or weed control at 200 ppm [1] | inhibition of growth at 20 ppm [2]

CC(=O)n1ccc(=O)n1Cc1ccc(-c2noc(C(F)(F)F)n2)cc1 [Compound A-2, 1-acetyl-2-[[4-[5-(trifluoromethyl)-1,2,4-oxadiazol-3-yl]phenyl]methyl]pyrazol-3-one]
≥ 80%: pest or weed control at 200 ppm [3] | pest or weed control at 200 ppm (Phakopsora pachyrhizi) | pest or weed control at 200 ppm [1] | inhibition of growth at 20 ppm [2]

Cc1cc(C)n(Cc2ccc(-c3noc(C(F)(F)F)n3)cc2)c(=O)c1 [Compound C-3, 4,6-dimethyl-1-[[4-[5-(trifluoromethyl)-1,2,4-oxadiazol-3-yl]phenyl]methyl]pyridin-2-one]
≥ 80%: pest or weed control at 200 ppm [3]
